Test results taken from patent US8617546B2, “Anticancer agent comprising anti-PD-1 antibody or anti-PD-L1 antibody” (Seoul National University Industry Foundation, priority 2008, dated 2013).

Assays:
[1] = test system: B16F10 melanoma metastasis; assay: B16F10 melanoma metastasis model with anergy-induced iNKT cells: number of pulmonary nodules; type: in vivo, C57BL/6 mice; conditions: anergy induced with control IgG and α-GC; α-GC treatment during tumor inoculation; FIG. 10
Protocol: Anergy-induced iNKT cells were assayed for the recovery of anti-tumor activity by the antibodies of the present invention. In this regard, naive C57BL/6 mice were intraperitoneally injected with 200 μg of the control rat IgG, the anti-PD-1 antibody or the anti-PD-L1 antibody 24 hrs after which injection with 2 μg of α-GC induced iNKT cell anergy. 7 days later, 5×10^5 B16F10 tumor cells were i.v. injected. On Day 0, 4 and 8, the mice were treated with 500 ng of α-GC to induce anti-tumor activity of iNKT cells. 14 days later, the lungs were excised and the nodules formed by cancer metastasis were counted (A). The isolated lungs were observed under an optical microscope (B).

[2] = test system: iNKT cells; assay: Expression of PD-1 and PD ligands on iNKT cells after α-GC administration (FACS); type: in vivo, C57BL/6 mice; conditions: FIG. 1
Protocol: Splenocytes were isolated from C57BL/6 mice administered with 2 μg of α-GC at different time points (0 hr, 6 hrs, 72 hrs, 7 days, one month and two months) after the administration. The cells were stained with a PE-conjugated anti-PD-1 monoclonal antibody, a PE-conjugated anti-PD-L1 monoclonal antibody, a PE-conjugated anti-PD-L2 monoclonal antibody and a PE-conjugated isotype control monoclonal antibody, respectively. iNKT cells were gated on B220^− TCR-β^intα-GC/CD1d:Ig^+ population. PD-1, PD-L1 and PD-L2 expression (open histograms) was analyzed by FACS. Shaded histograms indicate staining with isotype control niAbs.

[3] = test system: anergic iNKT cells; assay: Recovery of responsiveness of anergic iNKT cells in vitro (cytokine ELISA of supernatants); type: cell-based, C57BL/6 mice; conditions: pre-treatment with 2 μg α-GC 7 days before restimulation, in presence of control IgG; FIG. 5
Protocol: The α-GC-induced unresponsiveness of iNKT cells was detected as early as 3 days after primary stimulation and observed to persist until 7~30 days after α-GC stimulation. Thus, C57BL/6 mice were injected with 2 μg of α-GC to induce iNKT cell anergy. One week and one month later, splenocytes were isolated from the mice and 5×10^5 cells were incubated for 3 days with 100 ng/ml of α-GC in the presence of 50 μg/ml of the control rat IgG, the anti-PD-1 mAb, the anti-PD-L1 mAb, or the anti-PD-L2 mAb. Also, splenocytes isolated from the mice were incubated for 3 days with 10 ng/ml of α-GC without mAb, and these were represented by ‘activation’. The supernatants were then assayed for IFN-γ and IL-4 levels by ELISA [*:p<0.05 and **:p<0.01 (vs. control rat IgG)].

[4] = test system: iNKT cells; assay: iNKT cell activation in vivo: serum IFN-γ and IL-4 by ELISA after α-GC treatment; set-up: species or system C57BL/6 mice; conditions: 2 μg α-GC; FIG. 3
Protocol: C57BL/6 mice was injected with 200 μg of the control rat IgG, the anti-PD-1 mAb, the anti-PD-L1 mAb or the anti-PD-L2 mAb 24 hrs before treatment with 2 μg of α-GC. Sera were obtained at 0, 2, 6, 12, 24, 48 and 72 hrs after the treatment, followed by ELISA analysis for IFN-γ and IL-4 levels.

[5] = test system: anergic iNKT cells; assay: Recovery of responsiveness of anergic iNKT cells in vivo: serum cytokines after secondary α-GC injection; set-up: species or system C57BL/6 mice; conditions: 2 μg α-GC, re-injection 14 days later; FIG. 6
Protocol: 200 μg of the control rat IgG, the anti-PD-1 antibody or the anti-PD-L1 antibody was intraperitoneally injected into C57BL/6 mice 24 hrs before treatment with 2 μg of α-GC. 14 days later, 2 μg of α-GC was injected again, followed by the preparation of sera 2 and 12 hrs after the re-injection for ELISA assay of IL-4 and IFN-γ levels, respectively.

CCCCCCCCCCCCCCCCCCCCCCCCCC(=O)N[C@@H](CO[C@H]1O[C@H](CO)[C@H](O)[C@H](O)[C@H]1O)[C@H](O)[C@H](O)CCCCCCCCCCCCCC [α-GC, α-galactosylceramide]
tumor growth / metastasis with anergic iNKT cells [1]: did not suppress tumor growth | PD-L1 expression on iNKT cells ([2]; after 2 μg α-GC): temporarily increased | persistence of the upregulated PD-1 level on iNKT cells ([2]; after 2 μg α-GC): for two months | time for PD-L1 expression to decline toward naive state levels ([2]; after 2 μg α-GC): ≤ 72 h | PD-L2 expression on iNKT cells ([2]; regardless of activation status): not found | PD-1 expression on iNKT cells ([2]; splenocytes after 2 μg α-GC, 0 hr to two months): upregulated | production of IFN-γ on restimulation after α-GC pre-treatment [3]: greatly decrease | production of IL-4 on restimulation after α-GC pre-treatment [3]: greatly decrease | time of peak blood IFN-γ level after α-GC treatment [4]: ≤ 12 h | time of peak blood IL-4 level after α-GC treatment [4]: ≤ 2 h | serum IFN-γ upon secondary α-GC injection in mice pretreated with α-GC [5]: significantly low | serum IL-4 upon secondary α-GC injection in mice pretreated with α-GC [5]: significantly low
